Read-outs that look alike come from different tables or passages of the source.
Target: T1, GCS (Canis lupus familiaris, UniProt A0A8I3MXG6)
T1 sequence (A0A8I3MXG6 1-394): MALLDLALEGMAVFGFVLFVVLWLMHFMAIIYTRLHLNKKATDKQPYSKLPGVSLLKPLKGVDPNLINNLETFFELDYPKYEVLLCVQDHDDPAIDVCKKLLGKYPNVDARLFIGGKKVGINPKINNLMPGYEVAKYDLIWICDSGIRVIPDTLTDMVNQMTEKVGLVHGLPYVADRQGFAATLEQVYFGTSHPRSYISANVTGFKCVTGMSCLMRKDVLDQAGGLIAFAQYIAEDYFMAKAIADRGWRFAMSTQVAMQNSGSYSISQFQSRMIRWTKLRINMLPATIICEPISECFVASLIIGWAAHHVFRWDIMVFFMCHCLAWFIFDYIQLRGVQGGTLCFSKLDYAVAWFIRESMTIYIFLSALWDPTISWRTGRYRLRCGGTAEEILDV
Test: Assay 1: GCS Enzymatic Assay (MDCK cell lysate, C6-NBD-Ceramide, LC/MS)
Assay type: biochemical, canine
Details: read-out: IC50 (nM) generated from Assay 1
Summary of the method: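 LC/MS/MS measurement of glucosylceramide and NBD-ceramide after a 1 h, 37 °C reaction with 100 μM UDP-glucose and 10 μM C6-NBD-ceramide gave IC50s or percent inhibition.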

Structure (SMILES)	IC50 (Table 2, data without asterisk) [nM]	IC50 (Table 3, MDCK cell lysate) [nM]
O=C(N[C@H](CN1CCCC1)[C@H](O)c1ccc(OC2CC2)c(Cl)c1)C(=O)c1ccc(-c2ccn(C3CC3)n2)cc1 [Example 349, N-((1R,2R)-1-(3-chloro-4-cyclopropoxyphenyl)-1-hydroxy-3-(pyrrolidin-1-yl)propan-2-yl)-2-(4-(1-cyclopropyl-1H-pyrazol-3-yl)phenyl)-2-oxoacetamide]	< 50	–
O=C(N[C@H](CN1CCCC1)[C@H](O)c1cc(F)c2c(c1)OCCO2)C(=O)c1ccc(-c2ccn(C3CC3)n2)cc1 [Example 350, 2-(4-(1-cyclopropyl-1H-pyrazol-3-yl)phenyl)-N-((1R,2R)-1-(8-fluoro-2,3-dihydrobenzo[b][1,4]dioxin-6-yl)-1-hydroxy-3-(pyrrolidin-1-yl)propan-2-yl)-2-oxoacetamide]	< 50	–
CC(C)n1ccc(-c2ccc(C(=O)C(=O)N[C@H](CN3CCCC3)[C@H](O)c3cc(F)c4c(c3)OCCO4)cc2)n1 [Example 352, N-((1R,2R)-1-(8-fluoro-2,3-dihydrobenzo[b][1,4]dioxin-6-yl)-1-hydroxy-3-(pyrrolidin-1-yl)propan-2-yl)-2-(4-(1-isopropyl-1H-pyrazol-3-yl)phenyl)-2-oxoacetamide]	< 50	–
O=C(N[C@H](CN1CCCC1)[C@H](O)c1ccc(OC2CC2)c(Cl)c1)C(=O)c1ccc2c(cnn2-c2ccc(F)cc2)c1 [Example 353, N-((1R,2R)-1-(3-chloro-4-cyclopropoxyphenyl)-1-hydroxy-3-(pyrrolidin-1-yl)propan-2-yl)-2-(1-(4-fluorophenyl)-1H-indazol-5-yl)-2-oxoacetamide]	< 50	–
O=C(N[C@H](CN1CCCC1)[C@H](O)c1ccc(OC2CC2)c(Cl)c1)C(=O)c1ccc2nn(-c3ccc(F)cc3)cc2c1 [Example 354, N-((1R,2R)-1-(3-chloro-4-cyclopropoxyphenyl)-1-hydroxy-3-(pyrrolidin-1-yl)propan-2-yl)-2-(2-(4-fluorophenyl)-2H-indazol-5-yl)-2-oxoacetamide]	< 50	–
C=C(C)c1ccc(-c2ccc(C(=O)C(=O)N[C@H](CN3CCCC3)[C@H](O)c3ccc(OC4CC4)c(Cl)c3)cc2)cc1 [Example 355, N-((1R,2R)-1-(3-chloro-4-cyclopropoxyphenyl)-1-hydroxy-3-(pyrrolidin-1-yl)propan-2-yl)-2-oxo-2-(4′-(prop-1-en-2-yl)-[1,1′-biphenyl]-4-yl)acetamide]	< 50	–
CC(C)(O)c1ccc(-c2ccc(C(=O)C(=O)N[C@H](CN3CCCC3)[C@H](O)c3cc(F)c4c(c3)OCCO4)cc2)cc1 [Example 356, N-((1R,2R)-1-(8-fluoro-2,3-dihydrobenzo[b][1,4]dioxin-6-yl)-1-hydroxy-3-(pyrrolidin-1-yl)propan-2-yl)-2-(4′-(2-hydroxypropan-2-yl)-[1,1′-biphenyl]-4-yl)-2-oxoacetamide]	< 50	–
CC(C)c1ccc(-c2ccc(C(=O)C(=O)N[C@H](CN3CCCC3)[C@H](O)c3cc(F)c4c(c3)OCCO4)cc2)cc1 [Example 357, N-((1R,2R)-1-(8-fluoro-2,3-dihydrobenzo[b][1,4]dioxin-6-yl)-1-hydroxy-3-(pyrrolidin-1-yl)propan-2-yl)-2-(4′-isopropyl-[1,1′-biphenyl]-4-yl)-2-oxoacetamide]	< 50	–
CC(C)(O)c1ccc(-c2ccc(C(=O)C(=O)N[C@H](CN3CCCC3)[C@H](O)c3ccc(OC4CC4)c(Cl)c3)cc2)cc1 [Example 358, N-((1R,2R)-1-(3-chloro-4-cyclopropoxyphenyl)-1-hydroxy-3-(pyrrolidin-1-yl)propan-2-yl)-2-(4′-(2-hydroxypropan-2-yl)-[1,1′-biphenyl]-4-yl)-2-oxoacetamide]	< 50	–
O=C(N[C@H](CN1CCCC1)[C@H](O)c1ccc(Cl)cc1)C(=O)c1ccc(-c2ccc(F)cc2)cc1 [Example 389, N-((1R,2R)-1-(4-chlorophenyl)-1-hydroxy-3-(pyrrolidin-1-yl)propan-2-yl)-2-(4′-fluoro-[1,1′-biphenyl]-4-yl)-2-oxoacetamide]	–	50 to 5000
O=C(N[C@H](CN1CCCC1)[C@H](O)c1ccc(OC2CC2)cc1)C(F)(F)CCc1ccc2ccccc2c1 [Example 390, N-((1R,2R)-1-(4-cyclopropoxyphenyl)-1-hydroxy-3-(pyrrolidin-1-yl)propan-2-yl)-2,2-difluoro-4-(naphthalen-2-yl)butanamide]	–	< 50
O=C(N[C@H](CN1CCCC1)[C@H](O)c1ccc(OC2CC2)cc1)C(=O)c1ccc(-c2ccc(Cl)s2)cc1 [Example 392, 2-(4-(5-chlorothiophen-2-yl)phenyl)-N-((1R,2R)-1-(4-cyclopropoxyphenyl)-1-hydroxy-3-(pyrrolidin-1-yl)propan-2-yl)-2-oxoacetamide]	–	< 50

The remaining lines, values ahead:

IC50 (Table 2, data without asterisk) [nM]	IC50 (Table 3, MDCK cell lysate) [nM]	Structure (SMILES)
< 50	–	CC(C)n1ccc(-c2ccc(C(=O)C(=O)N[C@H](CN3CCCC3)[C@H](O)c3ccc(OC4CC4)c(Cl)c3)cc2)n1 [Example 351, N-((1R,2R)-1-(3-chloro-4-cyclopropoxyphenyl)-1-hydroxy-3-(pyrrolidin-1-yl)propan-2-yl)-2-(4-(1-isopropyl-1H-pyrazol-3-yl)phenyl)-2-oxoacetamide]
< 50	–	O=C(N[C@H](CN1CCCC1)[C@H](O)c1ccc(OC2CC2)c(F)c1)C(=O)c1ccc(-c2ccc(Cl)s2)cc1 [Example 359, 2-(4-(5-chlorothiophen-2-yl)phenyl)-N-((1R,2R)-1-(4-cyclopropoxy-3-fluorophenyl)-1-hydroxy-3-(pyrrolidin-1-yl)propan-2-yl)-2-oxoacetamide]
–	< 50	O=C(N[C@H](CN1CCCC1)[C@H](O)c1ccc(OC2CC2)c(Cl)c1)C(=O)c1cc2cc(Cl)ccc2s1 [Example 384, N-((1R,2R)-1-(3-chloro-4-cyclopropoxyphenyl)-1-hydroxy-3-(pyrrolidin-1-yl)propan-2-yl)-2-(5-chlorobenzo[b]thiophen-2-yl)-2-oxoacetamide]
–	50 to 5000	O=C(N[C@H](CN1CCCC1)[C@H](O)c1ccc(OC2CC2)c(Cl)c1)C(=O)c1ccc(-n2ccnn2)cc1 [Example 385, 2-(4-(1H-1,2,3-triazol-1-yl)phenyl)-N-((1R,2R)-1-(3-chloro-4-cyclopropoxyphenyl)-1-hydroxy-3-(pyrrolidin-1-yl)propan-2-yl)-2-oxoacetamide]
–	50 to 5000	O=C(N[C@H](CN1CCCC1)[C@H](O)c1ccc(Cl)cc1)C(=O)c1cc2ccc(Cl)cc2s1 [Example 386, 2-(6-chlorobenzo[b]thiophen-2-yl)-N-((1R,2R)-1-(4-chlorophenyl)-1-hydroxy-3-(pyrrolidin-1-yl)propan-2-yl)-2-oxoacetamide]
–	< 50	O=C(N[C@H](CN1CCC1)[C@H](O)c1ccc(OC2CC2)c(F)c1)C(=O)c1cc2cc(Cl)ccc2s1 [Example 387, N-((1R,2R)-3-(azetidin-1-yl)-1-(4-cyclopropoxy-3-fluorophenyl)-1-hydroxypropan-2-yl)-2-(5-chlorobenzo[b]thiophen-2-yl)-2-oxoacetamide]
–	< 50	O=C(N[C@H](CN1CCCC1)[C@H](O)c1ccc(OC2CC2)cc1)C(=O)c1cc2ccccc2s1 [Example 388, 2-(benzo[b]thiophen-2-yl)-N-((1R,2R)-1-(4-cyclopropoxyphenyl)-1-hydroxy-3-(pyrrolidin-1-yl)propan-2-yl)-2-oxoacetamide]
–	< 50	O=C(N[C@H](CN1CCCC1)[C@H](O)c1ccc(OC2CC2)cc1)C(=O)c1cc2cc(Cl)ccc2s1 [Example 391, 2-(5-chlorobenzo[b]thiophen-2-yl)-N-((1R,2R)-1-(4-cyclopropoxyphenyl)-1-hydroxy-3-(pyrrolidin-1-yl)propan-2-yl)-2-oxoacetamide]
